Results: patent publication US9617264B2, “2,7-diazaspiro[3.5]nonane compounds” (REMYND NV, priority 2014, dated 2017)

Columns and labels:
[1] = tested on: db/db mice; assay: In vivo evaluation in db/db mice (type 2 diabetes model)
Description: For in vivo evaluation of compound efficacy, male BKS.Cg-+Leprdb/Leprdb/OlaHsd mice (db/db mice—Harlan) were used. The db/db phenotype results from a mutation in the leptin receptor gene, leading to a splice variant (Chen, Charlat et al. 1996; Lee, Proenca et al. 1996). The development of type 2 diabetes in db/db mice is associated with reduced insulin levels due to progressive β-cell failure following an initial period of hypersecretion of insulin. Since these mice develop type 2 diabetes in a manner related to pathology development in humans, and the model is accepted as in vivo model for evaluation of novel anti-diabetic treatments by the Food and Drug Administration (FDA, US), it is a highly relevant model for testing candidate drugs for efficacy.
Compounds were administered intraperitoneal (IP) or oral (PO) at a dose of maximally 50 mg/kg. Mice were subjected to metabolic analysis weekly or bi-weekly. These tests included but were not limited to determination of fasting (5 hrs) and non-fasting blood glucose levels, plasma insulin levels, % glycated hemoglobin (HbA1c) levels, glucose tolerance test and insulin sensitivity test.
Treatment with Cmpd045 at 15 mg/kg PO decreased body weight (FIG. 1A).

[2] = tested on: INS-1E cells; assay: Cytokine-induced apoptosis (caspase-3/7 activation, Caspase-Glo 3/7) in INS-1E rat insulinoma cells; format: cell-based; conditions: cytokine mix (IFN-γ, IL-1, TNF-α), 24 hours, caspase 3/7 activity, read-out: CYT EC50
Description: The INS-1E cell line, a rat insulinoma cell line, has been characterized extensively. INS-1E cells respond to glucose by secreting insulin and, unlike most other immortalized n-cell lines, they do this in a consistent manner over time. The cells are sensitive to hyperglycemia-, free fatty acid (FFA)-, and cytokine-induced stress. Prolonged stress ultimately leads to induction of apoptotic pathways and, if stress is not counter-acted, to apoptosis. Caspase-3 and -7 play a central role downstream where various apoptotic pathways merge. As such, activation (i.e. cleavage) of these caspases forms a relevant primary read-out to evaluate protective activity of compounds against stress-induced apoptosis.
To evaluate the efficacy of different compounds to prevent induction of apoptosis, an in vitro screen was developed in which INS-1E cells were exposed to a cytokine mix (IFN-γ, 5 ng/ml; IL-1, 20 pg/ml; TNF-α, 0.25 ng/ml). The degree of induction of apoptosis was evaluated using a substrate for cleaved caspase-3 and -7, i.e. a proluminescent caspase-3/7 DEVD aminoluciferin substrate with a thermostable luciferase (Caspase-Glo® 3/7 assay; Promega, cat. G8092).
On day 0, INS-1E cells were plated in a white-walled 96-well microplate (Greiner, cat. 655098) at 20,000 cells per well in 100 μl complete medium (RPMI containing 11 mM glucose supplemented with 5% FCS, 100 IU/ml penicillin, 100 μg/ml streptomycin, 10 mM HEPES, 1 mM Sodium Pyruvate and 50 μM 2-Mercapto-ethanol). On day 2, 100 μl medium containing cytokines and compound dissolved in DMSO was added to the cells. Wells without cytokines containing DMSO and wells with cytokines and DMSO were included to evaluate the degree of caspase 3/7 activation by the cytokine mix. After 24 hours exposure to cytokines and/or compound, Caspase-Glo® 3/7 reagent was added to the cells and caspase activity was determined by measuring luminescence.
To evaluate compound efficacy, the “toxicity window” was calculated by subtracting caspase activity of wells without stressor from activity of wells with stressor but without compound. The amount of caspase activity in the latter wells was normalized to 1 and used as reference. Subsequently, caspase activity in the wells with stressor and varying concentrations of compound was calculated relative to the wells without compound. Plotting caspase activity vs the log 10 of the concentration of compound permitted calculation of the EC50 values for the compounds which typically lied between 0.0001 and 10 μM. Compounds with an EC50<10 μM were considered active.

[3] = tested on: M17_3SYN cells; assay: Paraquat-induced cytotoxicity (LDH) in α-synuclein over-expressing M17_3SYN neuroblastoma cells; format: cell-based; conditions: Homo sapiens, Neuroblastoma cell, 48 h, 6 mM Paraquat, 2 days, LDH toxicity inhibition, read-out: SYN EC50
Procedure, shortened: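 Human BE-M17 neuroblastoma cells stably overexpressing wild-type human α-synuclein were challenged with 6 mM paraquat (final) for 2 days at 37° C in the presence of graded compound concentrations. Cytotoxicity was measured as released LDH relative to total LDH, and EC50 was derived from dose-inhibition curves.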

EC50 [2]: 12 nM
SMILES: COc1ccc(S(=O)(=O)N2CC3(CCN(S(=O)(=O)c4ccc(OC(F)F)cc4)CC3)C2)cc1 [Cmpd045, 7-((4-(Difluoromethoxy)phenyl)sulfonyl)-2-((4-methoxyphenyl)sulfonyl)-2,7-diazaspiro[3.5]nonane]
body weight ([1]; 15 mg/kg PO, non-fasted body weight, FIG. 1A): decreased
Fasted blood glucose levels ([1]; fasted, FIG. 1B): significantly lower
% HbA1c levels ([1]; treated for 4 weeks, FIG. 1C): reduced
EC50 [3]: 2 nM
